The target of series [1] is glucagon receptor (Rattus norvegicus, UniProt P30082). The series is described as follows: Experiment for glucagon binding inhibition, rat hepatic membrane (125I-glucagon). The following applies: male SD rat hepatic membrane, 125I-glucagon 50 pM, 25° C. for 30 minutes; read-out: Glucagon binding inhibitory activity IC50 (nM) Rat. As to the method:
(§1) The preparation of membrane from mouse and rat livers was carried out according to the method described in Bioorg. Med. Chem. Lett. 1992, 12, 915-918 in this experiment and ^125I-glucagon binding activity was measured with these membranes as glucagon receptor's samples. Livers were removed from male SD rats (about 250 g body weight per rat) and male ddY mice (about 30 g body weight per mouse). […] The homogenate was centrifuged for 15 minutes at 30,000×g. […] The precipitaion thus obtained was used as a hepatic membrane sample. […] The mixture was incubated at 25° C. for 30 minutes. […] The filter was washed 3 times with 50 mM Tris-HCl buffer (pH 7.2), and the radioactivity of the filter was measured by a γ counter (ARC-360, Aloka Co., Ltd.). […] Each experiment was carried out in duplicate. […] The concentration at 50% inhibition of binding (IC50) was calculated using a pseudo Hill plot.

The target of series [2] is glucagon receptor (Mus musculus, UniProt Q61606). Kind of series: Experiment for glucagon binding inhibition, mouse hepatic membrane (125I-glucagon). The following applies: male ddY mouse hepatic membrane, 125I-glucagon 50 pM, 25° C. for 30 minutes; read-out: Glucagon binding inhibitory activity IC50 (nM) Mouse. The procedure: as §1

The text below walks through data of patent US7514452B2, “2-furancarboxylic acid hydrazides and pharmaceutical compositions containing the same” (Dainippon Pharmaceutical Co., Ltd, priority 2002, dated 2009).

Chain of glucagon receptor (Rattus norvegicus, UniProt P30082) (P30082 27-485): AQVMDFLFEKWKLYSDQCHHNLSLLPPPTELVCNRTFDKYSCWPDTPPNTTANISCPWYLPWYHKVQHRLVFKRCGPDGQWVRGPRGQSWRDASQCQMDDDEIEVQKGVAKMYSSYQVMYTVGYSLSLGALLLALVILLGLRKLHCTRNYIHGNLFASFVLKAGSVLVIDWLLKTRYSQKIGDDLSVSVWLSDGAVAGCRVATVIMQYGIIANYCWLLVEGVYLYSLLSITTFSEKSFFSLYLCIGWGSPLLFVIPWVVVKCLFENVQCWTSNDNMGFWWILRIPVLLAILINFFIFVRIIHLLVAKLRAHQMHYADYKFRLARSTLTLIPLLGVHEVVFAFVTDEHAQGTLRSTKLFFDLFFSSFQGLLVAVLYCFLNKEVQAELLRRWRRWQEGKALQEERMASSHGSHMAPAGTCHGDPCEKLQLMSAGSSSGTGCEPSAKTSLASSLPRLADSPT
Chain of glucagon receptor (Mus musculus, UniProt Q61606) (Q61606 27-485): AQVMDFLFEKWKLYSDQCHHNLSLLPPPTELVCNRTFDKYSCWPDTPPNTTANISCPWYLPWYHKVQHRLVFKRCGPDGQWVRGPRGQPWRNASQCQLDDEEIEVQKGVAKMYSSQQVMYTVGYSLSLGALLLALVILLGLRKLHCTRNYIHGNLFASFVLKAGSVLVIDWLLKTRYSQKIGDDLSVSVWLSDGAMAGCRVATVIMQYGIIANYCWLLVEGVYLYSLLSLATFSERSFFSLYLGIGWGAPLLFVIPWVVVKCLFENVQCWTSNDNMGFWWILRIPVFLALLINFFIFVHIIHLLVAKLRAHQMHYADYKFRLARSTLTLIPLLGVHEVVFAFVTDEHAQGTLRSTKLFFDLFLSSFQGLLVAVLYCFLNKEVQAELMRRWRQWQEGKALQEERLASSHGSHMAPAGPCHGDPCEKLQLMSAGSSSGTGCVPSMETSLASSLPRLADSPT

In turn, `CC(=O)N(Cc1ccccc1)c1cccc(-c2ccoc2C(=O)NNC(=O)c2ccc(O)c(C#N)c2)c1` registered a melting point of 221 to 222 °C.
The molecule `N#Cc1cc(C(=O)NNC(=O)c2occc2-c2cccc(NC(=O)OCc3ccccc3)c2)ccc1O` registered a melting point of 179 to 181 °C.
On the same count and under the same terms, next, `O=C(NNC(=O)c1occc1-c1ccncc1)c1ccc(O)c([N+](=O)[O-])c1`: 237 °C.
The molecule `Cc1cc(C)c(C)c(COc2cccc(-c3coc(C(=O)NNC(=O)c4ccc(O)c([N+](=O)[O-])c4)c3-c3cccc(OCc4c(C)c(C)cc(C)c4C)c3)c2)c1C` gave a melting point of 174 to 175 °C.
In turn, `COc1ccc(C(=O)NNC(=O)c2occ(-c3ccccc3)c2-c2ccccc2)cc1C#N` displayed a melting point of 220 to 225 °C.
On the same count and under the same terms, the same measure for `COc1ccc(C(=O)NNC(=O)c2occ(-c3ccccc3)c2-c2ccccc2)cc1[N+](=O)[O-]`: 150 to 158 °C; for `Cc1ccccc1COc1cccc(-c2ccoc2C(=O)NNC(=O)c2ccc(O)c(C#N)c2)c1`: 178 to 180 °C.
On the same count and under the same terms, the same measure for `CS(=O)(=O)Oc1cccc(-c2ccoc2C(=O)NNC(=O)c2ccc(O)c([N+](=O)[O-])c2)c1`: 170 to 171 °C; for `CC(C)(C)OC(=O)c1cc(C(=O)NNC(=O)c2occc2-c2ccccc2)ccc1O`: 147 to 154 °C; for `O=C(NNC(=O)c1occc1-c1ccccc1)c1ccc(O)c(C(=O)O)c1`: 250 to 251 °C.
On the same count and under the same terms, next, `O=C(NNC(=O)c1occ(-c2ccccc2)c1-c1ccccc1)c1cccs1`: 132 to 135 °C.
Regarding `Cc1ccc(-c2ccoc2C(=O)NNC(=O)c2ccc(O)c(Cl)c2)cc1`, the melting point fell in the range of 240 to 242 °C.
Turning to `O=C(NNC(=O)c1occ(-c2ccccc2)c1-c1ccccc1)c1ccncc1`, the melting point is 115 to 120 °C.
With `O=C(NNC(=O)c1occ(-c2ccccc2)c1-c1ccccc1)c1ccccn1`, the melting point was 190 to 192 °C.
In turn, `COc1ccc(C(=O)NNC(=O)c2occ(-c3ccccc3)c2-c2ccccc2)cc1Cl` had a melting point of 203 to 207 °C.
The same measure, in the same setting: the same measure for `O=C(NNC(=O)c1occ(-c2ccccc2)c1-c1ccccc1)c1ccc(O)c(Cl)c1`: 197 to 199 °C; for `C=Cc1coc(C(=O)NNC(=O)c2ccc(O)c(C#N)c2)c1-c1ccccc1`: 175 to 177 °C.
`CCc1c(-c2ccccc2)coc1C(=O)NNC(=O)c1ccc(O)c(C#N)c1` returned a melting point of 190 to 192 °C.
For `CCc1coc(C(=O)NNC(=O)c2ccc(O)c(C#N)c2)c1-c1ccccc1`, the melting point was in the range of 186 to 188 °C.
As for `COc1ccc(C(=O)NNC(=O)c2occ(-c3ccccc3)c2-c2ccccc2)cc1OC`, the melting point is 181 to 184 °C.
Same read-out and setting: next, `COc1ccc(C(=O)NNC(=O)c2occ(-c3ccccc3)c2-c2ccccc2)c(OC)c1`: 240 to 242 °C.
Take `COc1c(Cl)cc(C(=O)NNC(=O)c2occ(-c3ccccc3)c2-c2ccccc2)cc1Cl`: the melting point was 229 to 230 °C.
In turn, `O=C(NNC(=O)c1occ(-c2ccccc2)c1-c1ccccc1)c1ccc(O)c(O)c1` gave a melting point of 242 to 244 °C.
With `O=C(NNC(=O)c1occ(-c2ccccc2)c1-c1ccccc1)c1ccc(O)cc1O`, the melting point was in the range of 285 to 288 °C.
The same measure, in the same setting: next, `O=C(NNC(=O)c1occ(-c2ccccc2)c1-c1ccccc1)c1cc(Cl)c(O)c(Cl)c1`: 261 to 263 °C; `O=C(NNC(=O)c1occ(-c2ccccc2)c1-c1ccccc1)c1ccc(O)c(-c2ccccc2)c1`: 217 to 218 °C.
`N#Cc1cc(C(=O)NNC(=O)c2occ(-c3ccc(F)cc3)c2-c2ccc(F)cc2)ccc1O` [Example 45, 3,4-Bis(4-fluorophenyl)-2-furancarboxylic acid 2-(3-cyano-4-hydroxybenzoyl)hydrazide]: the melting point lay in the range of 243 to 245 °C. The IC50 at glucagon receptor [1] turned out to be 220 nM. For the same molecule, the IC50 on glucagon receptor [2] turned out to be 120 nM.
In the same order, the values of `CCCCOc1cccc(-c2ccoc2C(=O)NNC(=O)c2ccc(O)c(C#N)c2)c1` [Example 107, 3-(3-Butoxyphenyl)-2-furancarboxylic acid 2-(3-cyano-4-hydroxybenzoyl)hydrazide] are 186 to 188 °C, 140 nM and 360 nM.
For `N#Cc1cc(C(=O)NNC(=O)c2occc2-c2cccc(OCC(O)c3ccccc3)c2)ccc1O` (stereo not shown) [Example 108, 3-[3-(2-Hydroxy-2-phenylethoxy)phenyl]-2-furancarboxylic acid 2-(3-cyano-4-hydroxybenzoyl)hydrazide], the IC50 on glucagon receptor [1] was 110 nM; on glucagon receptor [2], 310 nM.
In turn, `Cc1cc(C)c(C)c(COc2ccc(-c3ccoc3C(=O)NNC(=O)c3ccc(O)c([N+](=O)[O-])c3)cc2)c1C` [Example 113, 3-[4-(2,3,5,6-Tetramethylbenzyloxy)phenyl]-2-furancarboxylic acid 2-(4-hydroxy-3-nitrobenzoyl)hydrazide] displayed a melting point of 203 to 204 °C. Also, at glucagon receptor [1], the concentration for half-maximal inhibition (IC50) is 28 nM. In addition, at glucagon receptor [2], the IC50 turned out to be 43 nM.
Turning to `N#Cc1cc(C(=O)NNC(=O)c2occ(-c3cccc(OCc4ccccc4)c3)c2-c2cccc(OCc3ccccc3)c2)ccc1O` [Example 115, 3,4-bis(3-benzyloxyphenyl)-2-furancarboxylic acid 2-(3-cyano-4-hydroxybenzoyl)hydrazide], the IC50 on glucagon receptor [1] was determined as 54 nM; on glucagon receptor [2], 80 nM.
The molecule `Cc1ccccc1COc1cccc(-c2ccoc2C(=O)NNC(=O)c2ccc(O)c([N+](=O)[O-])c2)c1` [Example 119, 3-[3-(2-methylbenzyloxy)phenyl]-2-furancarboxylic acid 2-(4-hydroxy-3-nitrobenzoyl)hydrazide] had a melting point of 114 to 115 °C. For the same molecule, the IC50 at glucagon receptor [1] amounted to 16 nM. Moreover, the IC50 on glucagon receptor [2] worked out at 9.6 nM.
Consider `CS(=O)(=O)c1ccc(COc2cccc(-c3ccoc3C(=O)NNC(=O)c3ccc(O)c([N+](=O)[O-])c3)c2)cc1` [Example 120, 3-[3-(4-Methylsulfonylbenzyloxy)phenyl]-2-furancarboxylic acid 2-(4-hydroxy-3-nitrobenzoyl)hydrazide], for which the melting point lay within 114 to 117 °C. Moreover, the IC50 at glucagon receptor [1] stood at 37 nM. The half-maximal inhibitory concentration (IC50) on glucagon receptor [2] was determined as 27 nM.
Take `Cc1cccc(COc2cccc(-c3ccoc3C(=O)NNC(=O)c3ccc(O)c([N+](=O)[O-])c3)c2)c1` [Example 123, 3-[3-(3-Methylbenzyloxy)phenyl]-2-furancarboxylic acid 2-(4-hydroxy-3-nitrobenzoyl)hydrazide]: the melting point is 144 to 145 °C. At glucagon receptor [1], the IC50 was 33 nM. Besides, the half-inhibitory concentration (IC50) on glucagon receptor [2] came to 65 nM.
`Cc1ccc(COc2cccc(-c3ccoc3C(=O)NNC(=O)c3ccc(O)c([N+](=O)[O-])c3)c2)cc1` [Example 126, 3-[3-(4-Methylbenzyloxy)phenyl]-2-furancarboxylic acid 2-(4-hydroxy-3-nitrobenzoyl)hydrazide] showed a melting point of 159 to 161 °C. Further, the 50% inhibitory concentration (IC50) at glucagon receptor [1] worked out at 14 nM. Moreover, the half-maximal inhibitory concentration (IC50) on glucagon receptor [2] came to 15 nM.
In the same order, the values of `Cc1ccc(C)c(COc2cccc(-c3ccoc3C(=O)NNC(=O)c3ccc(O)c([N+](=O)[O-])c3)c2)c1` [Example 127, 3-[3-(2,5-Dimethylbenzyloxy)phenyl]-2-furancarboxylic acid 2-(4-hydroxy-3-nitrobenzoyl)hydrazide] are 131 to 132 °C, 8.6 nM and 7.8 nM.
For `Cc1ccc(COc2cccc(-c3ccoc3C(=O)NNC(=O)c3ccc(O)c([N+](=O)[O-])c3)c2)c(C)c1` [Example 128, 3-[3-(2,4-Dimethylbenzyloxy)phenyl]-2-furancarboxylic acid 2-(4-hydroxy-3-nitrobenzoyl)hydrazide] the same measures were 172 to 173 °C, 3.4 nM and 2.8 nM.
In the same order, the values of `Cc1ccc(COc2cccc(-c3ccoc3C(=O)NNC(=O)c3ccc(O)c([N+](=O)[O-])c3)c2)cc1C` [Example 129, 3-[3-(3,4-Dimethylbenzyloxy)phenyl]-2-furancarboxylic acid 2-(4-hydroxy-3-nitrobenzoyl)hydrazide] are 157 to 162 °C, 5.2 nM and 6.1 nM.
The molecule `CS(=O)(=O)c1ccc(COc2cccc(-c3ccoc3C(=O)NNC(=O)c3ccc(O)c(C#N)c3)c2)cc1` [Example 136, 3-[3-(4-methylsulfonylbenzyloxy)phenyl]-2-furancarboxylic acid 2-(3-cyano-4-hydroxybenzoyl)hydrazide] had a melting point of 235 to 237 °C. Besides, the IC50 on glucagon receptor [1] is 96 nM. Besides, on glucagon receptor [2], the half-inhibitory concentration (IC50) turned out to be 48 nM.
`CS(=O)(=O)Nc1ccccc1COc1cccc(-c2ccoc2C(=O)NNC(=O)c2ccc(O)c([N+](=O)[O-])c2)c1` [Example 138, 3-[3-(2-Methylsulfonylaminobenzyloxy)phenyl]-2-furancarboxylic acid 2-(4-hydroxy-3-nitrobenzoyl)hydrazide]: the half-inhibitory concentration (IC50) on glucagon receptor [1] worked out at 15 nM; on glucagon receptor [2] it was 23 nM.
For `CC(=O)Nc1ccccc1COc1cccc(-c2ccoc2C(=O)NNC(=O)c2ccc(O)c([N+](=O)[O-])c2)c1` [Example 179, 3-[3-(2-Acetylaminobenzyloxy)phenyl]-2-furancarboxylic acid 2-(4-hydroxy-3-nitrobenzoyl)hydrazide] the same measures were 63 nM and 28 nM.

In general, melting point refers to the temperature of the solid-liquid transition. The IC50 is the midpoint of a concentration-inhibition curve.
